Data taken from patent US6562828B1, “Amidine compounds” (Japan Tobacco Inc., priority 1998, dated 2003).
Structures can show the parent of a compound that is named as a salt.

Legend:
Human FXa [1] = target: T1, Human FXa (Homo sapiens, UniProt P00742); assay: Oral administration test in mouse, human FXa inhibitory activity in serum; assay type: in vivo; settings: ICR mice, mean ± S.D., n = 3
T1 construct: Human FXa [Enzyme research Laboratories (USA)] enzyme; purchased Enzyme Research Laboratories (USA)
Experimental: (§1) Human FXa inhibitory activity was measured as follows. Human FXa [Enzyme research Laboratories (USA)] enzyme (40 μl, 0.5 U/ml) and a 4-fold diluted plasma sample (40 μl) were incubated in 0.1M Tris-0.2M NaCl buffer (pH 8.4) (40 μl) at 37° C. for 10 min. A synthetic substrate S-2222 (Daiichi Pure Chemical (Tokyo, Japan), 40 μl) adjusted to 0.8 mM was added and the mixture was incubated at 37° C. for 5 min. The reaction was stopped by addition of 60% acetic acid (40 μl) and absorbance at 405 nm was measured by Model 3550 (BIO-RAD). For the control, serum or plasma obtained prior to blood sampling was used for measurement. Human FXa inhibitory activity was calculated as inhibition percentage (%) against control.
Oral Administration Tests in Mouse
A test compound dissolved in distilled water was orally administered to ICR mice (body weight 20-30 g, 4-6 weeks old) and the activity of the test compound was evaluated based on the human FXa inhibitory activity in serum as an indicator.
At 30, 60, 120, 180 min from the oral administration, blood was taken from the eye ground using a hematocrit tube. The blood was centrifuged at 9000 G for 5 min and the obtained serum was used for the determination. Human FXa inhibitory activity was determined in the same manner as in the test by intravenous administration.
Target sequence in this assay (P00742 235-488 limits assumed): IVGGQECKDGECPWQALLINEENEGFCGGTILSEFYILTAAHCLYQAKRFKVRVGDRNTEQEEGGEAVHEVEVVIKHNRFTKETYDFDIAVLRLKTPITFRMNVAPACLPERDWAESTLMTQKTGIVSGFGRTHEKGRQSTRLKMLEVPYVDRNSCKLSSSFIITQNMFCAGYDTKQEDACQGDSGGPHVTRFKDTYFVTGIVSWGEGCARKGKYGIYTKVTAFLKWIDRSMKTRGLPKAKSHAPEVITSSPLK
Target sequence in this assay (P00742 41-179 limits assumed): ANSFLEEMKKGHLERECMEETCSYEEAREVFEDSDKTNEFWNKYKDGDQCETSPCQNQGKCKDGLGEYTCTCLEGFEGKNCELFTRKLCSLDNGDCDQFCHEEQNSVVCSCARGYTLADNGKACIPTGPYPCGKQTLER

normal plasma [2] = assay: Determination of prothrombin time (PT), human plasma; assay type: biochemical
Experimental: (§2) Determination of prothrombin time (PT)
(§3) Blood was taken from mouse, rat, crab-eating monkey and healthy human volunteers, and citric acid was added. The blood was centrifuged at 4° C. and 2000 G for 15 min to obtain normal plasma of various animals.
(§4) Purified water (5 μl) containing various concentrations of test compound was added to plasma (45 μl) and the resultant mixtures were used as samples. […] (Baxter) was prepared and heated at […] for 5 min, and a sample (50 μl) was admixed with the thrombin reagent (100 μl). The time (PT) until precipitation of fibrin was measured. The drug concentration that doubled the PT hours of the drug untreated group was calculated and taken as CT2.

Human FXa [3] = target: T1, Human FXa; assay: Intravenous administration test in mouse, human FXa inhibitory activity in serum; assay type: in vivo; settings: ICR mice, i.v., mean ± S.D., n = 3
Experimental: Intravenous Administration Tests in Mouse
A test compound dissolved in physiological saline was intravenously administered to ICR mice (body weight 20-30 g, 4-6 weeks old) and the activity of the test compound was evaluated based on the human FXa inhibitory activity in serum as an indicator.
At 10, 30, 60, 120 min from the intravenous administration, blood was taken from the eye ground using a hematocrit tube. The blood was centrifuged at 9000 G for 5 min and the obtained serum was used for the determination.
as §1
Target sequence in this assay (P00742 235-488 limits assumed): as the sequence (P00742 235-488 limits assumed) above
Target sequence in this assay (P00742 41-179 limits assumed): as the sequence (P00742 41-179 limits assumed) above

normal plasma [4] = assay: Determination of prothrombin time (PT), rat plasma; assay type: biochemical
Experimental: as §2, §3, §4

Human FXa [5] = target: T1, Human FXa; assay: Determination of anti-factor Xa (FXa) activity, synthetic substrate S-2222; assay type: biochemical; settings: S-2222, 37° C., pH 8.4, read-out: Experimental Example 1: anti-FXa activity, IC50
Experimental: Determination of Anti-factor Xa (FXa) Activity
Human FXa [Enzyme research Laboratories (USA)] enzyme (40 μl, 0.16U/ml) and test compounds (40 l) adjusted to various concentrations were incubated in 0.1M Tris (Tris-hydroxymethyl-aminomethane) buffer (pH 8.4) containing 0.2M sodium chloride (herein to be referred to as 0.1 M tris-0.2M NaCl buffer) (40 μl) at 37° C. for 10 min. A synthetic substrate S-2222 (Daiichi Pure Chemical (Tokyo, Japan), 40 μl) adjusted to 0.8 mM was added and the mixture was incubated at 37° C. for 10 min. The reaction was stopped by addition of 60% acetic acid (40 μl) and absorbance at 405 nm was measured by Model 3550 (BIO-RAD). For the control, the solvent was used instead of the test compound.
Target sequence in this assay (P00742 235-488 limits assumed): as the sequence (P00742 235-488 limits assumed) above
Target sequence in this assay (P00742 41-179 partner limits assumed): as the sequence (P00742 41-179 limits assumed) above

[6] = tested on: decrease of platelets and formation of FDP by thromboplastin; assay: Blood coagulation model in rat (thromboplastin); assay type: in vivo; settings: i.v. 10 min before thromboplastin, mean ± S.D, n = 3; for PLT value: counted 10 min later; for FDP value: measured 30 min later
Experimental: Blood Coagulation Model in Rat
Intravenous administration of thromboplastin (Sigma) to rat promotes coagulation system, which in turn decreases platelets and increases fibrin degradation product (FDP). Thus, the test compound was intravenously administered 10 min before thromboplastin administration and the inhibitory effects of the test compound on the decrease of platelets and the formation of FDP by thromboplastin were studied. The thromboplastin administered had such concentration as to form clots within 20 seconds from the addition of one plasma dose to two thromboplastin doses and was administered in 1 ml/kg dose. Platelets were counted (PLT value) 10 min later on a blood cell counter sysmex F-800 [Dade International Inc. (USA)], and FDP was measured 30 min later using FDP latex reagent for serum [Teikoku Hormone Mfg. Co., Ltd. (Tokyo, Japan)]. In every Example, the PLT value of the thromboplastin untreated group was (106±13)×10^4 and the FDP value of this group was 0±0 μg/ml.

Human FXa [7] = target: T1, Human FXa; assay: Intravenous administration test in monkey, human FXa inhibitory activity in plasma; assay type: in vivo; settings: crab-eating monkey, i.v., mean ± S.D., n = 3
Experimental: as §1
Target sequence in this assay (P00742 235-488 limits assumed): as the sequence (P00742 235-488 limits assumed) above
Target sequence in this assay (P00742 41-179 limits assumed): as the sequence (P00742 41-179 limits assumed) above
Intravenous Administration Tests in Monkey
A test compound dissolved in physiological saline was intravenously administered to monkey (crab-eating monkey, body weight 3.5-4.5 kg) and the activity of the test compound was evaluated based on the human FXa inhibitory activity in plasma as an indicator.
At 10, 30, 60, 120, 180 min from the intravenous administration, blood was taken from the saphenous vein with the passage of time and the blood was centrifuged at 2000 G for 10 min. The obtained citric acid plasma was used for the determination. Human FXa inhibitory activity was determined in the same manner as in the test using mouse.

Human FIIa = target: T2, Human FIIa (Homo sapiens, UniProt P00734); assay: Determination of anti-factor IIa (FIIa) activity, synthetic substrate S-2238; assay type: biochemical; settings: S-2238, 37° C., pH 8.4, read-out: Experimental Example 2: anti-FIIa activity, IC50
T2 construct: purchased Sigma

Q: For `CC(=N)N1CCC(Oc2ccc(N(Cc3nc4cc(C(=N)N)ccc4n3CC(=O)N[C@@H](C)c3ccccc3)C(=O)c3ccc(C(=O)O)cc3)cc2)CC1` [Example 17, (S)-4-[N-[5-Amidino-1-(1-phenylethylcarbamoylmethyl)benzimidazole-2-ylmethyl]-N-[4-(1-acetimidoylpiperidin-4-yloxy)phenyl]carbamoyl]benzoic Acid Dihydrochloride], which inhibition at 10 mg/kg (Human FXa [1]; 30 minutes) is on record?
A: 46 ± 3%

Q: And the inhibition at 10 mg/kg (Human FXa [1]; 60 minutes)?
A: 34 ± 7%

Q: What about the inhibition at 10 mg/kg (Human FXa [1]; 120 minutes) of the same compound?
A: 20%

Q: What about the inhibition at 10 mg/kg (Human FXa [1]; 180 minutes) of the same compound?
A: 21 ± 5%

Q: What about the “CT2 (drug concentration that doubled the PT)” value (normal plasma [2]) of the same compound?
A: 0.5 µM

Q: What about the inhibition at 0.1 mg/kg (Human FXa [3]; 10 minutes) of the same compound?
A: 31 ± 3%

Q: And the inhibition at 0.1 mg/kg (Human FXa [3]; 30 minutes)?
A: 10 ± 3%

Q: And the inhibition at 0.1 mg/kg (Human FXa [3]; 60 minutes)?
A: 0%

Q: And the inhibition at 0.1 mg/kg (Human FXa [3]; 120 minutes)?
A: 0%

Q: What about the inhibition at 0.3 mg/kg (Human FXa [3]; 10 minutes) of the same compound?
A: 65 ± 1%

Q: What about the inhibition at 0.3 mg/kg (Human FXa [3]; 30 minutes) of the same compound?
A: 38 ± 5%

Q: And the inhibition at 0.3 mg/kg (Human FXa [3]; 60 minutes)?
A: 16 ± 3%

Q: And the inhibition at 0.3 mg/kg (Human FXa [3]; 120 minutes)?
A: 8 ± 4%

Q: What about the inhibition at 1 mg/kg (Human FXa [3]; 10 minutes) of the same compound?
A: 70 ± 1%

Q: And the inhibition at 1 mg/kg (Human FXa [3]; 30 minutes)?
A: 69 ± 2%

Q: And the inhibition at 1 mg/kg (Human FXa [3]; 60 minutes)?
A: 41 ± 10%

Q: What about the inhibition at 1 mg/kg (Human FXa [3]; 120 minutes) of the same compound?
A: 1 ± 3%

Q: What about the “CT2 (drug concentration that doubled the PT)” value (normal plasma [4]) of the same compound?
A: 2 µM

Q: And the IC50 (Human FXa [5])?
A: 3 nM

Q: What about the PLT value ([6]; dose 0.01 mg/kg) of the same compound?
A: 41 ± 13 ×10^4 blood platelet/μl

Q: And the FDP value ([6]; dose 0.01 mg/kg)?
A: 6 ± 3 µg/mL

Q: And the PLT value ([6]; dose 0.03 mg/kg)?
A: 92 ± 11 ×10^4 blood platelet/μl

Q: And the FDP value ([6]; dose 0.03 mg/kg)?
A: 1 ± 1 µg/mL

Q: And the PLT value ([6]; dose 1 mg/kg)?
A: 108 ± 6 ×10^4 blood platelet/μl

Q: What about the FDP value ([6]; dose 1 mg/kg) of the same compound?
A: 0 ± 0 µg/mL

Q: What about the inhibition at 1 mg/kg (Human FXa [7]; 10 minutes) of the same compound?
A: 90 ± 6%

Q: What about the inhibition at 1 mg/kg (Human FXa [7]; 30 minutes) of the same compound?
A: 90 ± 1%

Q: And the inhibition at 1 mg/kg (Human FXa [7]; 60 minutes)?
A: 86 ± 2%

Q: What about the inhibition at 1 mg/kg (Human FXa [7]; 120 minutes) of the same compound?
A: 77 ± 6%

Q: What about the inhibition at 1 mg/kg (Human FXa [7]; 180 minutes) of the same compound?
A: 65 ± 12%

Q: And the IC50 (Human FIIa)?
A: > 10000 nM
